These results are taken from patent US9527869B2, “Indolizine derivatives as phoshoinositide 3-kinases inhibitors” (CHIESI FARMACEUTICI S.P.A., priority 2014, dated 2016).

What all share (format): biochemical
For one assay, the target named is T1, PI3Kα (Homo sapiens, UniProt P42336).
T1 construct: purchased Millipore Ltd (Billerica, Mass.)
Briefly: In vitro determination of the PI3K enzyme inhibitory activity in the cell free assay (ADP-Glo Kinase Assay), PI3Kα. Conditions: ATP 50 μM, read-out: PI3K alpha inhibition. The protocol:
(§1) In vitro Determination of the PI3K Enzyme Inhibitory Activity in the Cell Free Assay
(§2) Human recombinant proteins PI3Kα, PI3Kβ, PI3Kγ and PI3Kδ were purchased from Millipore Ltd (Billerica, Mass.). Compounds were dissolved at 0.5 mM in DMSO and were tested at different concentrations for their activity against PI3Ks using the ADP-Glo™ Kinase Assay (Promega, Madison Wis.) according to the manufacturer's instructions.
(§3) Briefly, the kinase reactions were performed in 384-well white plates (Greiner Bio-One GmbH, Frickenhausen). Each well was loaded with 0.1 μl of test compounds and 2.5 μl of 2× reaction buffer (40 mM Tris pH7.5, 0.5 mM EGTA, 0.5 mM Na3VO4, 5 mM β-glycerophosphate, 0.1 mg/ml BSA, 1 mM DTT), containing 50 μM PI and PS substrates (L-α-phosphatidylinositol sodium salt and L-α-phosphatidyl-L-serine, Sigma-Aldrich, St. Louis Mo.) and the PI3K recombinant proteins (PI3Kγ 0.25 ng/μl, PI3Kδ 1 ng/μl, PI3Kα 0.125 ng/μl, PI3Kβ 1 ng/μl).
(§4) The reactions were started by adding 2.5 μl of 2×ATP solution to each well (final concentrations: PI3Kγ ATP 30 μM; PI3Kδ ATP 80 μM; PI3KαATP 50 μM; PI3Kβ ATP 100 μM) and incubated for 60 min at room temperature. Subsequently, each kinase reaction was incubated for 40 min with 5 μl ADP-Glo™ Reagent, allowing depletion of unconsumed ATP. Then, the Kinase Detection Reagent (10 μl) was added in each well to convert ADP to ATP and to allow the newly synthesized ATP to be measured using a luciferase/luciferin reaction. Following 60 min incubation, the luminescence signal was measured using a Wallac EnVision® multilabel reader (PerkinElmer, Waltham Mass.).
(§5) Curve fitting and IC50 calculation were carried out using a four-parameter logistic model in XLfit (IDBS, Guilford, UK) for Microsoft Excel (Microsoft, Redmont, Wash.).

The next assay has as its target T2, PI3Kβ (Homo sapiens, UniProt P42338).
T2 construct: purchased Millipore Ltd (Billerica, Mass.)
Description: In vitro determination of the PI3K enzyme inhibitory activity in the cell free assay (ADP-Glo Kinase Assay), PI3Kβ. Conditions: ATP 100 μM, read-out: PI3K beta inhibition. The protocol: as §1, §2, §3, §4, §5

A further assay deals with T3, PI3Kγ (Homo sapiens, UniProt P48736).
T3 construct: purchased Millipore Ltd (Billerica, Mass.)
T3 sequence (P48736 whole entry): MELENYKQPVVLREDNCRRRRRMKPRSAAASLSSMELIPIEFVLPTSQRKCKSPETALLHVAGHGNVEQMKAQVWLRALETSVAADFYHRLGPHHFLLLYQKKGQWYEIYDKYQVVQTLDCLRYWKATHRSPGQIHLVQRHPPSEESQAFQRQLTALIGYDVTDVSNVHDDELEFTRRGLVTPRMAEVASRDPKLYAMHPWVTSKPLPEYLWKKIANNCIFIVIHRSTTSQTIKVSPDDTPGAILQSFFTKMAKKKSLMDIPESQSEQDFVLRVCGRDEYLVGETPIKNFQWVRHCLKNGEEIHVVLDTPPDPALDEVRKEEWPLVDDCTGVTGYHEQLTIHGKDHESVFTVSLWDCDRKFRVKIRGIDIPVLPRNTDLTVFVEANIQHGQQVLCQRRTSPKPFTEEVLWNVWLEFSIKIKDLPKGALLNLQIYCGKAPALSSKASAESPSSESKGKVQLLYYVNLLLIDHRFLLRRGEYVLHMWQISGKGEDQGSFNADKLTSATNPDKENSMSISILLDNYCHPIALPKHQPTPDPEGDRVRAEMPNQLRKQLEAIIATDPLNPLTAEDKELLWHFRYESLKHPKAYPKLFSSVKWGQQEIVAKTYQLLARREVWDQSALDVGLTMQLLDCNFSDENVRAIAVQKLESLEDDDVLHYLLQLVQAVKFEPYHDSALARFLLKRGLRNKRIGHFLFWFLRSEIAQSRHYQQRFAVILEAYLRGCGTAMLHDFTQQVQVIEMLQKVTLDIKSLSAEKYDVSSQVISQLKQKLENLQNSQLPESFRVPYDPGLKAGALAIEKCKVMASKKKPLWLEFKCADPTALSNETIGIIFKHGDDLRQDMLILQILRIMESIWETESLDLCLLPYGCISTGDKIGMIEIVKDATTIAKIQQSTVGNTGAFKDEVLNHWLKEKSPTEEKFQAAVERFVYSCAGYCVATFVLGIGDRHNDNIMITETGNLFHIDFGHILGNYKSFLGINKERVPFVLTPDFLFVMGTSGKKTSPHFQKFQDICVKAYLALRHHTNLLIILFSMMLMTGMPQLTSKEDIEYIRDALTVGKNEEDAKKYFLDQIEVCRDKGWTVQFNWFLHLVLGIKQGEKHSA
Description: In vitro determination of the PI3K enzyme inhibitory activity in the cell free assay (ADP-Glo Kinase Assay), PI3Kγ. Conditions: ATP 30 μM, read-out: PI3K gamma inhibition. The protocol:
as §1, §2, §3, §4, §5
In general terms: In ADP-Glo the light output rises with the ADP produced.

The next assay concerns the target T4, PI3Kδ (Homo sapiens, UniProt O00329).
T4 construct: purchased Millipore Ltd (Billerica, Mass.)
Briefly: In vitro determination of the PI3K enzyme inhibitory activity in the cell free assay (ADP-Glo Kinase Assay), PI3Kδ. The settings on record: ATP 80 μM, read-out: PI3K delta inhibition. How it is done: as §1, §2, §3, §4, §5

T2 sequence (P42338 whole entry): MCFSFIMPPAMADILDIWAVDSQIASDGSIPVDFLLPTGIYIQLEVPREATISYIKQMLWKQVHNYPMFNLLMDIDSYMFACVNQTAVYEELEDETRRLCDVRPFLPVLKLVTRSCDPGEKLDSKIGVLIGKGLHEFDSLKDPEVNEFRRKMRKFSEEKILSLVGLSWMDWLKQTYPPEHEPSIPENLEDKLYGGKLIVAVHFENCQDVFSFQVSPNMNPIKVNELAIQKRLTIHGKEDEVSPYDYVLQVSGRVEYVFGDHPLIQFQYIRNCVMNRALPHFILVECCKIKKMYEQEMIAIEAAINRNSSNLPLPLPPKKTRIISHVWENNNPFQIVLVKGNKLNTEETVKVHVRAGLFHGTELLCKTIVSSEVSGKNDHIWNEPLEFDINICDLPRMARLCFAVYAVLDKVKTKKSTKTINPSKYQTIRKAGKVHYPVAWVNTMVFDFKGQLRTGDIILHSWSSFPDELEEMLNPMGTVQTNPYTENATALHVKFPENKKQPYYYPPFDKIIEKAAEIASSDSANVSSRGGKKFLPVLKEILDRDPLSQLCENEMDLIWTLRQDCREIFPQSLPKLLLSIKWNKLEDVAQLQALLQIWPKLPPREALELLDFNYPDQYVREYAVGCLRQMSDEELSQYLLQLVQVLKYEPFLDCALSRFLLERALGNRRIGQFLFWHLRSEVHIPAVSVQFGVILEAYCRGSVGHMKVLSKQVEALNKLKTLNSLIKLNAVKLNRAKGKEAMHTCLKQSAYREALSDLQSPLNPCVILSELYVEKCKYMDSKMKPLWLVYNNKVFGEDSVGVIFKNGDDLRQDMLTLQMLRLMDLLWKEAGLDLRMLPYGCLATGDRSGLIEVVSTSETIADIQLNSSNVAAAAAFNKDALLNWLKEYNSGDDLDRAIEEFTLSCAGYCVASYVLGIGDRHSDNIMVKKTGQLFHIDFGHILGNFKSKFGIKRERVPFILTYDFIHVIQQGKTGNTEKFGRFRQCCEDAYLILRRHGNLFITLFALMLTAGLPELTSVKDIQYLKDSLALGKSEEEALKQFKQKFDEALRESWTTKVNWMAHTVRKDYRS
T2 sequence (P27986 whole entry partner): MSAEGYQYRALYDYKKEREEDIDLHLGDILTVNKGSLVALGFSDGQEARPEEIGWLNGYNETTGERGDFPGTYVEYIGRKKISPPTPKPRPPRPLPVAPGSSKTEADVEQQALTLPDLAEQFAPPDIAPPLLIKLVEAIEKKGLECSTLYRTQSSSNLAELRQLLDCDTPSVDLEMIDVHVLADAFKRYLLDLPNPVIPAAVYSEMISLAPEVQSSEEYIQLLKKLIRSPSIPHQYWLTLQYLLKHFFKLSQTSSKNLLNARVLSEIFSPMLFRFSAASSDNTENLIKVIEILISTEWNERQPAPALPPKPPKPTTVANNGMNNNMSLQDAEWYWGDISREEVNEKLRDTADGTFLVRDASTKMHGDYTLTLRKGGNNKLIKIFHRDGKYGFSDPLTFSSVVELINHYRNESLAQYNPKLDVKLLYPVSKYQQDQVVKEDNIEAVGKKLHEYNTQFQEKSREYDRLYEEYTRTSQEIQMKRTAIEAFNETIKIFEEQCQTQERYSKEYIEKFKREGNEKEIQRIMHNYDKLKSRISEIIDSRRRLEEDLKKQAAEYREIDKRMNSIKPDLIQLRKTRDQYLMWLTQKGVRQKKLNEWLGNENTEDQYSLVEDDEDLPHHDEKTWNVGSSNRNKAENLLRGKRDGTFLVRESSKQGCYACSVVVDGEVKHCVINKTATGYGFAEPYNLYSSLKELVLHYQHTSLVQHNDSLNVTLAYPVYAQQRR
T1 sequence (P42336 whole entry): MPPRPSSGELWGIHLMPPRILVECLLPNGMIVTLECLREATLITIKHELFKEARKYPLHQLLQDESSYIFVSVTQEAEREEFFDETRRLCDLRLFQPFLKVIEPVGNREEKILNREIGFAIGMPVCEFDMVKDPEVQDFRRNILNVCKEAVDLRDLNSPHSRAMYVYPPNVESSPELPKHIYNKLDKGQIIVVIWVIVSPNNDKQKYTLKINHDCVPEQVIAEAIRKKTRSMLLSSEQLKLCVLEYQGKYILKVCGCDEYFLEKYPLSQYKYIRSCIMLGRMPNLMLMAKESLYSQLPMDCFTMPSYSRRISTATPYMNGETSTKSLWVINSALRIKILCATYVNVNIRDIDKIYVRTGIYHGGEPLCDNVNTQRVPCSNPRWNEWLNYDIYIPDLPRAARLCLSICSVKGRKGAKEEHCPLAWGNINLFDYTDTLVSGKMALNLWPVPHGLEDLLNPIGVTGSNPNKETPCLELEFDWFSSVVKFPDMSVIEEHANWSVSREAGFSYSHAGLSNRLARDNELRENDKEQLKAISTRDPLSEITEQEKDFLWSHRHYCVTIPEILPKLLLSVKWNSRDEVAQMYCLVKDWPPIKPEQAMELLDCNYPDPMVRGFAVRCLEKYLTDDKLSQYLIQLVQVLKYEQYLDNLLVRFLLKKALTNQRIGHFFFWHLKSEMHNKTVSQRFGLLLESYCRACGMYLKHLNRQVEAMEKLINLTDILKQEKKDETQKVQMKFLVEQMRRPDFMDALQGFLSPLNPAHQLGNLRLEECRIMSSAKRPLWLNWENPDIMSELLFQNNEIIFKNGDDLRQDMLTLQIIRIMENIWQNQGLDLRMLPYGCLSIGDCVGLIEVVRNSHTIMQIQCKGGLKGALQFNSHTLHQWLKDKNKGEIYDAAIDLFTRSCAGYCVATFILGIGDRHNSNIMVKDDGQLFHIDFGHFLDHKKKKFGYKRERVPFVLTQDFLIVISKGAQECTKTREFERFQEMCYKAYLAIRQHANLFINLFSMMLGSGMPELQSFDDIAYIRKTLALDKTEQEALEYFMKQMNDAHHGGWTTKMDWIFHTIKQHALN
T1 sequence (P27986 whole entry partner): as the sequence (P27986 whole entry partner) above
T4 sequence (O00329 whole entry): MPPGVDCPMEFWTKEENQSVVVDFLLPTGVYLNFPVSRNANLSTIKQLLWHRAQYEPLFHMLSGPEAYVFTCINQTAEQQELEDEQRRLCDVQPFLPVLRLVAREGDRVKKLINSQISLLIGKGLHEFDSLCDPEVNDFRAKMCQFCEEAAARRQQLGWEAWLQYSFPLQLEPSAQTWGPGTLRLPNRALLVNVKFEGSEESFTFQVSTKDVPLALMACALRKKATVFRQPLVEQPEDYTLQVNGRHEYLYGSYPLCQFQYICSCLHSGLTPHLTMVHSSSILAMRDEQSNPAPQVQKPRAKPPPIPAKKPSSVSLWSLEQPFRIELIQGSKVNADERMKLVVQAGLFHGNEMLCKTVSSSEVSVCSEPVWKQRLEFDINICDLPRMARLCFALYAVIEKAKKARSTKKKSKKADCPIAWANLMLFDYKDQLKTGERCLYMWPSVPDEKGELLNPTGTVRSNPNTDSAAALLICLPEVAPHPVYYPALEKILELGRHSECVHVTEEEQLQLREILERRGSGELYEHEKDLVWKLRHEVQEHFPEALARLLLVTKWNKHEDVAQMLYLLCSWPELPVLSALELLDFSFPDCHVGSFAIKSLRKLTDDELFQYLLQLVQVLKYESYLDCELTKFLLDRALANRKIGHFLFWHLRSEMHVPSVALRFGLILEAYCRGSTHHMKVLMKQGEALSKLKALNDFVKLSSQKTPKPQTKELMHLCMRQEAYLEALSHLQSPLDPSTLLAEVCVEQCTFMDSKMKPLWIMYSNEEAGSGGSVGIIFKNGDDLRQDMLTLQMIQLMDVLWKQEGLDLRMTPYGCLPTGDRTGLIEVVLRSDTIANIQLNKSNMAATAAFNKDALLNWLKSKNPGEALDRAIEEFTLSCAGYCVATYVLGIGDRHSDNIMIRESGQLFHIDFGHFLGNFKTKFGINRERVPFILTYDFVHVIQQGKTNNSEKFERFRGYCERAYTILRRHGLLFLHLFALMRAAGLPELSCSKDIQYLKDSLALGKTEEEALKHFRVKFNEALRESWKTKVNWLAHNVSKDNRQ
T4 sequence (P27986 whole entry partner): as the sequence (P27986 whole entry partner) above

On to `CC(c1cc2ccccn2c1-c1cccc(C2CCCN2C)c1)n1nc(-c2cc(O)cc(F)c2)c2c(N)ncnc21` (mixture of isomers) [Example 118, 3-[4-amino-1-(1-{3-[3-(1-methylpyrrolidin-2-yl)phenyl]indolizin-2-yl}ethyl)-1H-pyrazolo[3,4-d]pyrimidin-3-yl]-5-fluorophenol], for which the IC50 at PI3Kα is more than 1 µM; on PI3Kβ it was 0.01 to 1 µM; on PI3Kγ, more than 1 µM; at PI3Kδ, 0.01 to 1 µM.

Regarding `CC(c1cc2ccccn2c1-c1ccccn1)n1nc(-c2cc(O)cc(F)c2)c2c(N)ncnc21` (racemic) [Example 79, 3-(4-amino-1-{1-[3-(pyridin-2-yl)indolizin-2-yl]ethyl}-1H-pyrazolo[3,4-d]pyrimidin-3-yl)-5-fluorophenol], the IC50 at PI3Kα is 0.01 to 1 µM; at PI3Kβ, 0.01 to 1 µM; on PI3Kγ it was 0.01 to 1 µM; on PI3Kδ, less than 0.01 µM.

Consider `CC(c1cc2ccccn2c1-c1ccncc1)n1nc(-c2cc(O)cc(F)c2)c2c(N)ncnc21` (racemic) [Example 82, 3-(4-amino-1-{1-[3-(pyridin-4-yl)indolizin-2-yl]ethyl}-1H-pyrazolo[3,4-d]pyrimidin-3-yl)-5-fluorophenol], for which the IC50 on PI3Kα was more than 1 µM; on PI3Kβ, 0.01 to 1 µM; at PI3Kγ, 0.01 to 1 µM; on PI3Kδ it was less than 0.01 µM.

For `CC(c1cc2ccccn2c1-c1cccc(CN(C)C)c1)n1nc(-c2cc(O)cc(F)c2)c2c(N)ncnc21` (racemic) [Example 93, 3-{4-amino-1-[1-(3-{3-[(dimethylamino)methyl]phenyl}indolizin-2-yl)ethyl]-1H-pyrazolo[3,4-d]pyrimidin-3-yl}-5-fluorophenol], the IC50 at PI3Kα, at PI3Kβ, on PI3Kγ and at PI3Kδ was 0.01 to 1 µM in each case.

Regarding `C[C@@H](c1cc2ccccn2c1-c1ccccn1)n1nc(-c2cc(O)cc(F)c2)c2c(N)ncnc21` (single isomer, unassigned) [Example 80, 3-(4-amino-1-{1-[3-(pyridin-2-yl)indolizin-2-yl]ethyl}-1H-pyrazolo[3,4-d]pyrimidin-3-yl)-5-fluorophenol], the IC50 on PI3Kα is 0.01 to 1 µM; at PI3Kβ, 0.01 to 1 µM; at PI3Kγ, 0.01 to 1 µM; on PI3Kδ, less than 0.01 µM.

Take `C[C@@H](c1cc2ccccn2c1-c1ccccn1)n1nc(-c2cc(O)cc(F)c2)c2c(N)ncnc21` (single isomer, unassigned) [Example 81, 3-(4-amino-1-{1-[3-(pyridin-2-yl)indolizin-2-yl]ethyl}-1H-pyrazolo[3,4-d]pyrimidin-3-yl)-5-fluorophenol]: the IC50 on PI3Kα is more than 1 µM; on PI3Kβ, more than 1 µM; on PI3Kγ, more than 1 µM; at PI3Kδ, 0.01 to 1 µM.

With `C[C@@H](c1cc2ccccn2c1-c1ccncc1)n1nc(-c2cc(O)cc(F)c2)c2c(N)ncnc21` (single isomer, unassigned) [Example 83, 3-(4-amino-1-{1-[3-(pyridin-4-yl)indolizin-2-yl]ethyl}-1H-pyrazolo[3,4-d]pyrimidin-3-yl)-5-fluorophenol], the IC50 was 0.01 to 1 µM on PI3Kα, 0.01 to 1 µM at PI3Kβ, 0.01 to 1 µM on PI3Kγ and less than 0.01 µM at PI3Kδ.

Regarding `C[C@@H](c1cc2ccccn2c1-c1ccncc1)n1nc(-c2cc(O)cc(F)c2)c2c(N)ncnc21` (single isomer, unassigned) [Example 84, 3-(4-amino-1-{1-[3-(pyridin-4-yl)indolizin-2-yl]ethyl}-1H-pyrazolo[3,4-d]pyrimidin-3-yl)-5-fluorophenol], the IC50 at PI3Kα was more than 1 µM; at PI3Kβ, more than 1 µM; on PI3Kγ, more than 1 µM; at PI3Kδ, 0.01 to 1 µM.

On to `C[C@H](c1cc2ccccn2c1-c1cccc(CN(C)C)c1)n1nc(-c2cc(O)cc(F)c2)c2c(N)ncnc21` (single isomer, unassigned) [Example 93a, 3-{4-amino-1-[1-(3-{3-[(dimethylamino)methyl]phenyl}indolizin-2-yl)ethyl]-1H-pyrazolo[3,4-d]pyrimidin-3-yl}-5-fluorophenol], for which the IC50 was 0.01 to 1 µM on PI3Kα, 0.01 to 1 µM at PI3Kβ, more than 1 µM at PI3Kγ and less than 0.01 µM on PI3Kδ.

For the compound `C[C@H](c1cc2ccccn2c1-c1cccc(CN(C)C)c1)n1nc(-c2cc(O)cc(F)c2)c2c(N)ncnc21` (single isomer, unassigned) [Example 93b, 3-{4-amino-1-[1-(3-{3-[(dimethylamino)methyl]phenyl}indolizin-2-yl)ethyl]-1H-pyrazolo[3,4-d]pyrimidin-3-yl}-5-fluorophenol], the IC50 at PI3Kα was more than 1 µM; on PI3Kβ, 0.01 to 1 µM; at PI3Kγ, more than 1 µM; on PI3Kδ, 0.01 to 1 µM.

On to `C[C@H](c1cc2ccccn2c1-c1ccc(CN2CCOCC2)cn1)n1nc(-c2cc(O)cc(F)c2)c2c(N)ncnc21` (single isomer, unassigned) [Example 108a, 3-[4-amino-1-(1-{3-[5-(morpholin-4-ylmethyl)pyridin-2-yl]indolizin-2-yl}ethyl)-1H-pyrazolo[3,4-d]pyrimidin-3-yl]-5-fluorophenol], for which the IC50 at PI3Kα was more than 1 µM; at PI3Kβ, 0.01 to 1 µM; at PI3Kγ, more than 1 µM; at PI3Kδ, less than 0.01 µM.

`C[C@H](c1cc2ccccn2c1-c1ccc(CN2CCOCC2)cn1)n1nc(-c2cc(O)cc(F)c2)c2c(N)ncnc21` (single isomer, unassigned) [Example 108b, 3-[4-amino-1-(1-{3-[5-(morpholin-4-ylmethyl)pyridin-2-yl]indolizin-2-yl}ethyl)-1H-pyrazolo[3,4-d]pyrimidin-3-yl]-5-fluorophenol]: the IC50 is more than 1 µM at PI3Kα, 0.01 to 1 µM on PI3Kβ, more than 1 µM at PI3Kγ and less than 0.01 µM at PI3Kδ.

Take `C[C@H](c1cc2ccccn2c1-c1ccc(CN2CCN(C)CC2)cn1)n1nc(-c2cc(O)cc(F)c2)c2c(N)ncnc21` (single isomer, unassigned) [Example 114a, 3-{4-amino-1-[1-(3-{5-[(4-methylpiperazin-1-yl)methyl]pyridin-2-yl}indolizin-2-yl)ethyl]-1H-pyrazolo[3,4-d]pyrimidin-3-yl}-5-fluorophenol]: the IC50 was 0.01 to 1 µM at PI3Kα, 0.01 to 1 µM at PI3Kβ, 0.01 to 1 µM on PI3Kγ and less than 0.01 µM at PI3Kδ.

Turning to `C[C@H](c1cc2ccccn2c1-c1ccc(CN2CCN(C)CC2)cn1)n1nc(-c2cc(O)cc(F)c2)c2c(N)ncnc21` (single isomer, unassigned) [Example 114b, 3-{4-amino-1-[1-(3-{5-[(4-methylpiperazin-1-yl)methyl]pyridin-2-yl}indolizin-2-yl)ethyl]-1H-pyrazolo[3,4-d]pyrimidin-3-yl}-5-fluorophenol], the IC50 on PI3Kα was 0.01 to 1 µM; at PI3Kβ, 0.01 to 1 µM; at PI3Kγ it was 0.01 to 1 µM; at PI3Kδ, less than 0.01 µM.

As to `C[C@H](c1cc2ccccn2c1-c1ccc(CN(CCO)CCO)cn1)n1nc(-c2cc(O)cc(F)c2)c2c(N)ncnc21` (single isomer, unassigned) [Example 117a, 3-(4-amino-1-{1-[3-(5-{[bis(2-hydroxyethyl)amino]methyl}pyridin-2-yl)indolizin-2-yl]ethyl}-1H-pyrazolo[3,4-d]pyrimidin-3-yl)-5-fluorophenol], the IC50 at PI3Kα was 0.01 to 1 µM; at PI3Kβ, 0.01 to 1 µM; on PI3Kγ it was more than 1 µM; at PI3Kδ, less than 0.01 µM.

As for `C[C@H](c1cc2ccccn2c1-c1ccc(CN(CCO)CCO)cn1)n1nc(-c2cc(O)cc(F)c2)c2c(N)ncnc21` (single isomer, unassigned) [Example 117b, 3-(4-amino-1-{1-[3-(5-{[bis(2-hydroxyethyl)amino]methyl}pyridin-2-yl)indolizin-2-yl]ethyl}-1H-pyrazolo[3,4-d]pyrimidin-3-yl)-5-fluorophenol], the IC50 is 0.01 to 1 µM at PI3Kα, 0.01 to 1 µM on PI3Kβ, more than 1 µM at PI3Kγ and less than 0.01 µM at PI3Kδ.

Consider `C[C@H](c1cc2ccccn2c1-c1ccn(CCN2CCOCC2)c(=O)c1)n1nc(-c2cc(O)cc(F)c2)c2c(N)ncnc21` (single isomer, unassigned) [Example 121a, 4-(2-{1-[4-amino-3-(3-fluoro-5-hydroxyphenyl)-1H-pyrazolo[3,4-d]pyrimidin-1-yl]ethyl}indolizin-3-yl)-1-[2-(morpholin-4-yl)ethyl]-1,2-dihydropyridin-2-one], for which the IC50 is more than 1 µM on PI3Kα, more than 1 µM on PI3Kβ, more than 1 µM at PI3Kγ and 0.01 to 1 µM at PI3Kδ.
